Assay results from patent US11963996B2, “Method of treating knee pain” (ORTHOTROPHIX, Inc., priority 2018, dated 2024).
“Also recorded” adds a separate entry of the source.

What was measured:
[1] = test system: defects in human molar; settings: in vivo; cited from earlier work
[2] = test system: subjects with bilateral patello-femoral knee osteoarthritis; experiment: Same study: MRI-based patello-femoral and tibiofemoral cartilage thickness; type: in vivo, human
Experimental: Subjects returned to their respective study sites at 3, 6 and 12 months after the first dosing day for follow-up evaluations. In addition, the study sites monitored the subject's condition through telephone contact 9 months after the first dosing day. During the 3, 6, and 12 months post-treatment, subjects were evaluated on site with physical examinations, vital signs, serum chemistries, as well as completing patient-reported outcomes including the KOOS. Adverse events and concomitant medications were recorded. MRIs of both knees were obtained during the 6 and 12-month visits.
All KOOS subscale scores, WOMAC Total score and subscale scores, MRI-based patello-femoral and tibiofemoral cartilage thickness, and MRI-based periarticular bone area and 3D bone shape were analyzed.
MRI images were provided to central readers cartilage and periarticular bone measures. Central readers were blind as to treatment assignment.
Statistical analyses were carried out using a two-sided paired t-test at the 5% level of significance. The outcome variables were the differences of the change of the score of each subscale of KOOS, change of cartilage thickness, periarticular bone area, and 3D bone shape score (“B Score”) change from baseline to 6 and 12 months in the treated knee (“Index Knee”) compared with the placebo-exposed knee (“Control Knee”).

[3] = test system: defects in human molar; experiment: Phase 2 study of dentin formation in defects in human molar; type: in vivo; settings: both Phase 2 studies
Experimental: (§1) Based on these safety and bone and dentin formation data, TPX-100 was tested in two Phase 2 studies for alveolar bone and dentin formation activities, respectively.

[4] = test system: alveolar bone; experiment: Phase 2 study of alveolar bone formation; type: in vivo, human; settings: drug vs placebo
Experimental: as §1

[5] = test system: healthy volunteers; experiment: GLP toxicology studies and Phase 1 clinical study with healthy volunteers; settings: human, in vivo
From the text: In non-clinical safety and efficacy studies, TPX-100 was first tested for its bone formation activity.

[6] = test system: subjects with bilateral patello-femoral knee osteoarthritis; experiment: Phase 2 randomized double-blind placebo-controlled study of TPX-100: patient-reported outcomes (KOOS, WOMAC); type: in vivo, human; settings: for KOOS ADL (knee function in activities of daily living) improvement over baseline / WOMAC Function subscale improvement: 200 mg intra-articular x4 once weekly, 6 and 12 months; for KOOS ADL (knee function in activities of daily living) improvement over baseline: Index vs Control (placebo) Knees
Experimental: A multicenter, randomized double-blind, placebo-controlled study was designed to investigate the safety, tolerability, pharmacokinetics, and efficacy of TPX-100 administered in four weekly doses in subjects with bilateral patello-femoral knee osteoarthritis. The study was conducted under an open IND (investigational new drug application) at CDER (Center for Drug Evaluation and Research) of the U.S. FDA (The United States Food and Drug Administration) in compliance with GCP (Good Clinical Practice) and ICH (International Conference on Harmonization of Technical Requirements for Registration of Pharmaceuticals for Human Use) guidelines. Eighteen (18) orthopedic, rheumatologic and family practice centers in the U.S. participated in the study.
The study was divided into Part A and Part B. The Part A was designed to evaluate safety of intra-articular (I.A.) administration of TPX-100 at different dosing levels (20, 50, 100, or 200 mg per injection in sequential cohorts) in the subjects with osteoarthritis of the knees and to select a dose for Part B. Part B was to evaluate safety and efficacy of the selected dose of TPX-100.
Subjects in Part A were enrolled in sequential cohorts and randomized to receive 20, 50, 100 or 200 mg of TPX-100 in one knee (Index Knee) and identical placebo in the contralateral (Control) knee. Subjects, sites and sponsor and central MRI readers were blinded as to treatment assignment. A Safety Review Committee (SRC) evaluated safety in each dosing cohort. The SRC assessed safety and determined whether the next higher dosing regimen could be enrolled. All dosing cohorts in Part A were completed and analyzed with regard to safety prior to dose selection and initiation of Part B.
Part A included four (4) intra-articular (I.A.) injections, one per week, in sequential dosing cohorts of 20, 50, 100 and 200 mg TPX-100 versus placebo. Six (6) subjects were enrolled in 20, 50, and 100 mg cohorts, respectively, and nine (9) subjects were enrolled in the 200 mg cohort.
The 200 mg dose was selected for Part B based on safety review and the approval of the SRC. […] Per the Statistical Analysis Plan, these subjects were combined with the nine subjects in the 200 mg cohort of Part A for the efficacy analysis. In total, data from 93 subjects was analyzed for drug efficacy, each of whom received 4 once-weekly injections of TPX-100, 200 mg/dose, in the Index knee and identical placebo in the contralateral knee, as randomly assigned.
In both Part A and Part B, subjects received 4, once-weekly doses of active drug in the knee randomized to active drug in the Index knee and placebo in the contralateral (Control) knee, delivered by the intra-articular route. No other doses of drug or placebo were administered. All subjects visited their respective clinical sites at 3, 6, and 12 months after the first dosing for their safety and efficacy assessments.
On the first dosing day, the randomized subjects were assessed by physical examinations and vital signs. Further, they completed the Knee injury and Osteoarthritis Outcome Score (KOOS), which includes the Western Ontario and McMaster Universities Osteoarthritis Index (WOMAC). The KOOS questionnaire assesses knee-specific activities of daily living, sports and recreation, knee-related quality of life, other symptoms such as stiffness, and knee pain. The KOOS has been used extensively in longitudinal studies of knee osteoarthritis. After assessments were completed, subjects received one intra-articular injection in each knee, with each injection prepared from the vial(s) marked for that knee. One knee received TPX-100, and the contralateral knee received placebo with subject, site, and sponsor blinded to treatment assignment. Subjects were monitored for adverse events during the injections and for a few hours after the injections. Vital signs were also monitored after the injections. […]

[7] = Index vs Control Knees, 6 or 12 months
[8] = 200 mg IA x4, Index vs Control Knees, 12 months

TPX-100: synthetic peptide consisting of 23 amino acids, TDLQERGDNDISPFSGDGQPFKD, derived from human Matrix Extracellular Phosphoglycoprotein (MEPE)
Dentin formation in defects in human molar [1]: reparative dentin formation
Overall tibiofemoral cartilage thickness change from baseline [2, 7]: not measurably different between Index and Control Knees
Patello-femoral (patella) cartilage thickness change from baseline by MRI (primary endpoint) [2, 7]: no statistically significant difference between Index vs. Control Knees; also recorded: no measurable difference between Index and Control Knees
Tibiofemoral cartilage thickness change in TPX-100-treated responder knees ([2]; knees with clinically meaningful functional improvements, baseline to 12 months): significantly increased
Tolerability in two Phase 2 studies (alveolar bone, dentin) [3]: well tolerated in both studies
Alveolar bone formation [4]: did not show a difference between drug vs. placebo-exposed groups
Safety in GLP toxicology studies and Phase 1 study [5]: Safety of the TPX-100 peptide was further confirmed
KOOS Sports and Recreation subscale improvement ([6]; 200 mg IA x4, Index vs Control Knees, 6 months): clinically meaningful and statistically significant improvement
KOOS Knee-related QOL subscale improvement [6, 8]: clinically meaningful and statistically significant improvement
KOOS Pain subscale improvement [6, 8]: only a statistical trend (p<0.09) of improvement; also recorded: clinically meaningful improvement in Index Knees as compared to Control Knees at 12 months, with a trend towards statistical significance (p<0.09)
Pain Frequency (KOOS Pain question 1) [6, 8]: statistically significant improvement in Index Knees as compared to Control Knees (p<0.05); also recorded: significantly reduced (p<0.05)
Pain going up or down stairs (KOOS Pain question) [6, 8]: statistically significant improvement in Index Knees as compared to Control Knees (p<0.05); also recorded: significantly improved (p<0.05)
WOMAC Pain domain improvement [6, 8]: clinically meaningful improvement in Index Knees at 12 months compared with Control knees, although the difference did not reach statistical significance
KOOS ADL (knee function in activities of daily living) improvement over baseline [6]: clinically meaningful and statistically significant (p<0.05) improvements
KOOS ADL (knee function in activities of daily living) improvement over baseline ([6]; listed as peptide of SEQ ID No. 1): clinically meaningful and statistically significant (p=0.008) improvement
WOMAC Function subscale improvement ([6]; Index vs Control Knees): same robust improvement in Index Knees as compared to Control Knees
WOMAC Function subscale improvement ([6]; Index vs Control Knees, listed as peptide of SEQ ID No. 1): clinically meaningful and statistically significant (p=0.008) improvement
WOMAC Total score improvement ([6]; Index vs Control Knees, 6 or 12 months, or both): significant improvements in favor of Index knees
Decrease in use of analgesics by participants ([6]; overall, over the 12-month study period): 62.5%
Pain frequency in responders, baseline to 12 months ([6]; responders to treatment, 12 months): decreased from daily pain at baseline to semi-monthly pain at 12 months
Pain frequency in responders, baseline to 12 months ([6]; responders to treatment, 12 months, listed as peptide of SEQ ID No. 1): semi-weekly
Improvement of pain frequency score in responder group ([6]; responders to treatment, baseline score 3 (daily), at 12 months): approximately 1.5 points
